Measurements as given in ChEMBL document CHEMBL1139101, “Potent, selective, and orally active adenosine A2A receptor antagonists: arylpiperazine derivatives of pyrazolo[4,3-e]-1,2,4-triazolo[1,5-c]pyrimidines” (Bioorg Med Chem Lett, 2007).
Converted amounts (≈) assume the structure as drawn.

What was measured:
Rattus norvegicus [1] = experiment: Inhibition of haloperidol-induced catalepsy in rat at 1 mg/kg, po after 4 hrs; format: functional
Rattus norvegicus [2] = experiment: Inhibition of haloperidol-induced catalepsy in rat at 1 mg/kg, po after 1 hr; format: functional
Homo sapiens [3] = species: Homo sapiens; experiment: Selectivity of human adenosine A2A receptor over human adenosine A1 receptor
Adenosine receptor A2a [4] = molecular target: Adenosine receptor A2a (Homo sapiens, UniProt P29274); experiment: Binding affinity to human adenosine A2A receptor
Sequence of Adenosine receptor A2a (Homo sapiens, UniProt P29274) (P29274 whole entry): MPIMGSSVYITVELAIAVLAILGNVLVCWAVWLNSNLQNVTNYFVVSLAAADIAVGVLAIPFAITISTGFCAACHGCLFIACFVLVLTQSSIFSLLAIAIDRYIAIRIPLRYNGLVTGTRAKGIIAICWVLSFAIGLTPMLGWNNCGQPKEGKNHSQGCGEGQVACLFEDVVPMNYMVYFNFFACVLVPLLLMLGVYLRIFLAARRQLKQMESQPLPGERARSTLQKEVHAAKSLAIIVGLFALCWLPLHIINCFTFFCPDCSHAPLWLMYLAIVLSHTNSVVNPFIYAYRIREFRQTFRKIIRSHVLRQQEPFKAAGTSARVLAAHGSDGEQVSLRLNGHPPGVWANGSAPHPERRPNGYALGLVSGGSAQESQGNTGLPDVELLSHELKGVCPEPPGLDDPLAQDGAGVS

[5] = Solubility in 0.01 N Hcl; format: physicochemical; settings: buffer
Adenosine receptor A3 = molecular target: T1, Adenosine receptor A3 (Homo sapiens, UniProt P0DMS8); experiment: Binding affinity to human adenosine A3 receptor
T1 sequence (P0DMS8 whole entry): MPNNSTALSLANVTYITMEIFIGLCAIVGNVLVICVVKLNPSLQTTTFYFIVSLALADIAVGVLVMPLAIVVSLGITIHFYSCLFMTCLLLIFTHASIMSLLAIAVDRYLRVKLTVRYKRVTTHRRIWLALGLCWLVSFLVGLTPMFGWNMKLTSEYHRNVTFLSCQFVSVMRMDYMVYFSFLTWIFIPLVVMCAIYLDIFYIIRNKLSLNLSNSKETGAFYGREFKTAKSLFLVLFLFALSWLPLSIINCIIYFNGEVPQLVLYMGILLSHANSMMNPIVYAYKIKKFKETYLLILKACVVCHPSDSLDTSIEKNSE

[6] = Solubility in water at pH 5.1; format: physicochemical
Adenosine receptor A2b = molecular target: T2, Adenosine receptor A2b (Homo sapiens, UniProt P29275); experiment: Binding affinity to human adenosine A2B receptor
T2 sequence (P29275 whole entry): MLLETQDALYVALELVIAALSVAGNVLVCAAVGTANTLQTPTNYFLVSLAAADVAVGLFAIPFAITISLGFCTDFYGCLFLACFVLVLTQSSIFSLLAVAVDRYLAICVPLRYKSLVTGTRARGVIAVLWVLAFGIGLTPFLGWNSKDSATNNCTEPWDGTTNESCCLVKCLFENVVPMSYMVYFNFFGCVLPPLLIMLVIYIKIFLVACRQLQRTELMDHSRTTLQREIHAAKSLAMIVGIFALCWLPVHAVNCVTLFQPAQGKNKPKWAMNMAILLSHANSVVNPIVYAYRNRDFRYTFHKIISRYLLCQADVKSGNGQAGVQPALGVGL

Adenosine receptor A2a [7] = molecular target: Adenosine receptor A2a (Rattus norvegicus, UniProt P30543); experiment: Binding affinity to rat adenosine A2A receptor
Sequence of Adenosine receptor A2a (Rattus norvegicus, UniProt P30543) (P30543 whole entry): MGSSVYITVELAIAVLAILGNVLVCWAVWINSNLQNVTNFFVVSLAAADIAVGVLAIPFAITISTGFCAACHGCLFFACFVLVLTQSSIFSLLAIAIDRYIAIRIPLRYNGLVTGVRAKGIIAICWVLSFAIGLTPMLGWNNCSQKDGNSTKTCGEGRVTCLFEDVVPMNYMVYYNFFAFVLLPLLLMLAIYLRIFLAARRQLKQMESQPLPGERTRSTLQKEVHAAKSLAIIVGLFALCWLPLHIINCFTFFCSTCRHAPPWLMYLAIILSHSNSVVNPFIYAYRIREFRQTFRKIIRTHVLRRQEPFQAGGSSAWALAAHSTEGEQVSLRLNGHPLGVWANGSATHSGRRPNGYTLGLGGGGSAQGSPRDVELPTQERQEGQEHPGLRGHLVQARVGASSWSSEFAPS

Adenosine receptor A1 = molecular target: T3, Adenosine receptor A1 (Homo sapiens, UniProt P30542); experiment: Binding affinity to human adenosine A1 receptor
T3 sequence (P30542 whole entry): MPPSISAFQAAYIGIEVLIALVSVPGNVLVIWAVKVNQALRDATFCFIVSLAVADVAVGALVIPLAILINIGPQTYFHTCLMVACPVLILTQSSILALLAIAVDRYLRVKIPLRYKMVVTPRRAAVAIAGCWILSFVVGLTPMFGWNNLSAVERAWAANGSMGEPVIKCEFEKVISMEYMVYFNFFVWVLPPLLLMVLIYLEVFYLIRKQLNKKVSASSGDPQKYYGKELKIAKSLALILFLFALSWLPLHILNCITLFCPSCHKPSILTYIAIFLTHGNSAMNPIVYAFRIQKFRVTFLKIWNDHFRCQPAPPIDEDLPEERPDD

Rattus norvegicus [8] = experiment: Reversal of haloperidol-induced catalepsy in orally dosed rat after 1 hr; format: functional; settings: po, read-out: MED
[9] = Half life in rat at 1 mg/kg, iv; format: ADME, organism-based; parameters: dose 1 mg/kg, route intravenous; settings: in vivo
[10] = Cmax in rat at 3 mg/kg, po; format: ADME, organism-based; parameters: dose 3 mg/kg, route oral; settings: in vivo
[11] = Ratio of drug level in brain to plasma in rat; format: ADME
[12] = Volume of distribution at steady state in rat at 1 mg/kg, iv; format: ADME, organism-based; parameters: dose 1 mg/kg, route intravenous; settings: in vivo, read-out: Vdss
[13] = Tmax in rat at 3 mg/kg, po; format: ADME, organism-based; parameters: dose 3 mg/kg, route oral; settings: in vivo
[14] = Clearance in rat at 1 mg/kg, iv; format: ADME, organism-based; parameters: dose 1 mg/kg, route intravenous; settings: in vivo
[15] = AUC in rat at 3 mg/kg, po; format: ADME, organism-based; parameters: dose 3 mg/kg, route oral; settings: plasma
[16] = Oral bioavailability in rat at 3 mg/kg; format: ADME, organism-based; settings: in vivo
Homo sapiens [17] = species: Homo sapiens; experiment: Selectivity of human adenosine A2A receptor over human adenosine A2B receptor
[18] = molecular target: Adenosine receptor A2a (Rattus norvegicus) (UniProt P30543); experiment: Antagonist activity at rat adenosine A2A receptor assessed as CGS 21680-induced inhibition of adenylate cyclase activity by cell-based assay; format: functional
Sequence of Adenosine receptor A2a (Rattus norvegicus) (P30543 whole entry): as the sequence (P30543 whole entry) above

Homo sapiens [19] = species: Homo sapiens; experiment: Selectivity of human adenosine A2A receptor over human adenosine A3 receptor

Row | SMILES | inhibition in vivo at 1 mg/kg (Rattus norvegicus [1]) [%] | inhibition in vivo at 1 mg/kg (Rattus norvegicus [2]) [%] | Ratio Ki (Homo sapiens [3]) | Ki (Adenosine receptor A2a [4]) [nM] | also measured
1 | Nc1nc2c(cnn2CCN2CCN(c3ccc(F)c(F)c3F)CC2)c2nc(-c3ccco3)nn12 | 40 | 65 | 1500 | 0.6 | –
2 | N#Cc1ccc(N2CCN(CCn3ncc4c3nc(N)n3nc(-c5ccco5)nc43)CC2)cc1 | – | 0 | 571 | 2.1 | –
3 | Nc1nc2c(cnn2CCN2CCN(c3ccc(F)cc3F)CC2)c2nc(-c3ccco3)nn12 | 80 | 75 | > 1600 | 0.6 | –
4 | COCCOc1ccc(N2CCN(CCn3ncc4c3nc(N)n3nc(-c5ccco5)nc43)CC2)cc1 [PRELADENANT] | 70 | 77 | – | – | solubility [5]: 2000 µM (≈ 1010 µg/mL); Ki (Adenosine receptor A3): > 1000 nM; solubility [6]: 0.2 µM (≈ 0.101 µg/mL); Ki (Adenosine receptor A2b): > 1700 nM; Ki (Adenosine receptor A2a [7]): 2.5 nM; Ki (Adenosine receptor A1): > 1000 nM; minimal effective dose (Rattus norvegicus [8]): 0.3 mg/kg
5 | Nc1nc2c(cnn2CCN2CCN(c3ccc(O)cc3)CC2)c2nc(-c3ccco3)nn12 | – | 0 | 186 | 1.3 | –
6 | COCCOc1ccc(N2CCN(CCn3ncc4c3nc(N)n3nc(-c5ccco5)nc43)CC2)cc1.Cl | – | – | – | – | half-life [9]: 2.1 h; Cmax [10]: 762 nM; Kp [11]: 1; Vd [12]: 2.6 L/kg; Tmax [13]: 0.25 h; clearance [14]: 37 mL/min/kg; AUC [15]: 1.56 µM·h; bioavailability [16]: 57%
7 | COCCCOc1ccc(N2CCN(CCn3ncc4c3nc(N)n3nc(-c5ccco5)nc43)CC2)cc1 | 2 | 8 | 1160 | 0.6 | –
8 | Nc1nc2c(cnn2CCN2CCN(c3ccc(OCCOC4CC4)cc3)CC2)c2nc(-c3ccco3)nn12 | 30 | 59 | 930 | 0.6 | –
9 | COCCOc1ccc(N2CCN(CCn3ncc4c3nc(N)n3nc(-c5ccco5)nc43)CC2)c(F)c1 | 70 | 60 | 1740 | 0.4 | –
10 | CC(=O)COc1ccc(N2CCN(CCn3ncc4c3nc(N)n3nc(-c5ccco5)nc43)CC2)cc1 | 10 | 15 | 427 | 0.8 | –
11 | Nc1nc2c(cnn2CCN2CCN(c3c(F)cc(F)cc3F)CC2)c2nc(-c3ccco3)nn12 | 75 | 65 | 319 | 1.1 | –
12 | C[S+]([O-])COc1ccc(N2CCN(CCn3ncc4c3nc(N)n3nc(-c5ccco5)nc43)CC2)cc1 (stereo unspecified) | 5 | 30 | 523 | 2.2 | –
13 | Nc1nc2c(cnn2CCN2CCN(c3ccccc3)CC2)c2nc(-c3ccco3)nn12 | 0 | 52 | 343 | 1.6 | –
14 | COC(C)COc1ccc(N2CCN(CCn3ncc4c3nc(N)n3nc(-c5ccco5)nc43)CC2)cc1 (racemic) | 20 | 55 | 539 | 1.6 | –
15 | Nc1nc2c(cnn2CCN2CCN(c3ccc(F)c(F)c3)CC2)c2nc(-c3ccco3)nn12 | – | 45 | 169 | 1.4 | –
16 | CCOc1ccc(N2CCN(CCn3ncc4c3nc(N)n3nc(-c5ccco5)nc43)CC2)cc1 | – | 27 | 848 | 1.4 | –
17 | Nc1nc2c(cnn2CCN2CCN(c3ccccc3F)CC2)c2nc(-c3ccco3)nn12 | 25 | 20 | 894 | 0.6 | –
18 | Nc1nc2c(cnn2CCN2CCN(c3ccc(F)cc3)CC2)c2nc(-c3ccco3)nn12 | – | 8 | 101 | 1 | –
19 | Nc1nc2c(cnn2CCN2CCN(c3ccc(Cl)cc3)CC2)c2nc(-c3ccco3)nn12 | – | 11 | 1350 | 0.5 | –
20 | COCCOc1ccc(N2CCN(CCn3ncc4c3nc(N)n3nc(-c5ccco5)nc43)CC2)cc1 | – | – | – | – | Activity (Homo sapiens [17]): > 1000; Kb [18]: 0.7 nM; Activity (Homo sapiens [19]): > 1000
21 | Nc1nc2c(cnn2CCN2CCN(c3ccc(OCCO)cc3)CC2)c2nc(-c3ccco3)nn12 | 25 | 15 | 1520 | 0.6 | –
